The record followed here is US10538554B2, “Peptides and uses therefor as antiviral agents” (priority 2015, dated 2020).

The term % Inhibition denotes how much of the control response was suppressed. A low value points to a response near the control.

Bridge positions count the residues as written; N and C are the ends. Square brackets hold non-standard residues; d marks the D form. Peptide text beside a SMILES is read from it.

In the assay the test system is H1N1 A/PR/8/1934. Conditions: A/PR/8/1934, 48 h, 1 μM.
Regarding `CC[C@@H](C)[C@H]1NC(=O)[C@@H](Cc2ccccc2)NC(=O)[C@@H]([C@H](C)O)NC(=O)[C@@H](Cc2ccccc2)NC(=O)[C@@H](Cc2c[nH]c3ccccc23)NC(=O)[C@@H](CCCCN)NC(=O)[C@H](NC(=O)[C@H](CCCCN)NC(=O)[C@H](CCCCN)NC(=O)[C@H](CCCNC(=N)N)NC(=O)[C@@H](N)CCCNC(=N)N)CSSC[C@H](C(=O)O)NC(=O)[C@@H](CC(N)=O)NC1=O` [PSP V A9, H-RRKKckwftfinc-OH] (H-RRKK[dC][dK][dW][dF][dT][dF][dI][dN][dC]-OH; disulfide 5-13), the “% Inhibition” value stood at 77%. For `CC[C@@H](C)[C@H]1NC(=O)[C@@H](Cc2ccccc2)NC(=O)[C@@H]([C@H](C)O)NC(=O)[C@@H](Cc2ccccc2)NC(=O)[C@@H](Cc2c[nH]c3ccccc23)NC(=O)[C@@H](Cc2c[nH]c3ccccc23)NC(=O)[C@H](NC(=O)[C@H](CCCCN)NC(=O)[C@H](CCCCN)NC(=O)[C@H](CCCNC(=N)N)NC(=O)[C@@H](N)CCCNC(=N)N)CSSC[C@H](C(=O)O)NC(=O)CNC1=O` [PSP VI A6, H RRKKcwwftfiGc-OH] (H-RRKK[dC][dW][dW][dF][dT][dF][dI]G[dC]-OH; disulfide 5-13), the “% Inhibition” value was determined as 69%. The result for `CC[C@@H](C)[C@H]1NC(=O)[C@@H](Cc2ccccc2)NC(=O)[C@@H]([C@H](C)O)NC(=O)[C@@H](Cc2ccccc2)NC(=O)[C@@H](Cc2c[nH]c3ccccc23)NC(=O)[C@@H](Cc2c[nH]c3ccccc23)NC(=O)[C@H](NC(=O)[C@H](CCCCN)NC(=O)[C@H](CCCCN)NC(=O)[C@H](CCCNC(=N)N)NC(=O)[C@@H](N)CCCNC(=N)N)CSSC[C@H](C(=O)O)NC(=O)[C@@H](CCC(=O)O)NC1=O` [PSP VI A4, H-RRKKcwwftfiec-OH] (H-RRKK[dC][dW][dW][dF][dT][dF][dI][dE][dC]-OH; disulfide 5-13) reads 65%. The figure for `CC[C@@H](C)[C@H]1NC(=O)[C@@H](Cc2ccccc2)NC(=O)[C@@H]([C@H](C)O)NC(=O)[C@@H](Cc2ccccc2)NC(=O)[C@@H](Cc2c[nH]c3ccccc23)NC(=O)[C@@H](Cc2c[nH]c3ccccc23)NC(=O)[C@H](NC(=O)[C@H](CCCCN)NC(=O)[C@H](CCCCN)NC(=O)[C@H](CCCNC(=N)N)NC(=O)[C@@H](N)CCCNC(=N)N)CSSC[C@H](C(=O)O)NC(=O)[C@@H]([C@H](C)O)NC1=O` [PSP VI A17, H-RRKKcwwftfitc-OH] (H-RRKK[dC][dW][dW][dF][dT][dF][dI][dT][dC]-OH; disulfide 5-13) is 27%. The result for `CC[C@@H](C)[C@H]1NC(=O)[C@@H](Cc2ccccc2)NC(=O)[C@@H]([C@H](C)O)NC(=O)[C@@H](Cc2ccccc2)NC(=O)[C@@H](Cc2c[nH]c3ccccc23)NC(=O)[C@@H](Cc2c[nH]c3ccccc23)NC(=O)[C@H](NC(=O)[C@H](CCCCN)NC(=O)[C@H](CCCCN)NC(=O)[C@H](CCCNC(=N)N)NC(=O)[C@@H](N)CCCNC(=N)N)CSSC[C@H](C(=O)O)NC(=O)[C@@H](Cc2c[nH]cn2)NC1=O` [PSP VI A7, H-RRKKcwwftfihc-OH] (H-RRKK[dC][dW][dW][dF][dT][dF][dI][dH][dC]-OH; disulfide 5-13) reads 38.5%.

For the compound `CC[C@@H](C)[C@H]1NC(=O)[C@@H](Cc2ccccc2)NC(=O)[C@@H]([C@H](C)O)NC(=O)[C@@H](Cc2ccccc2)NC(=O)[C@@H](Cc2c[nH]c3ccccc23)NC(=O)[C@@H](Cc2c[nH]c3ccccc23)NC(=O)[C@H](NC(=O)[C@H](CCCCN)NC(=O)[C@H](CCCCN)NC(=O)[C@H](CCCNC(=N)N)NC(=O)[C@@H](N)CCCNC(=N)N)CSSC[C@H](C(=O)O)NC(=O)[C@H]2CCCN2C1=O` [PSP VI A13, H-RRKKcwwftfipc-OH] (H-RRKK[dC][dW][dW][dF][dT][dF][dI][dP][dC]-OH; disulfide 5-13), the “% Inhibition” value came to 42%.

Consider `CC[C@@H](C)[C@H]1NC(=O)[C@@H](Cc2ccccc2)NC(=O)[C@@H]([C@H](C)O)NC(=O)[C@@H](Cc2ccccc2)NC(=O)[C@@H](Cc2c[nH]c3ccccc23)NC(=O)[C@@H](Cc2c[nH]c3ccccc23)NC(=O)[C@H](NC(=O)[C@H](CCCCN)NC(=O)[C@H](CCCCN)NC(=O)[C@H](CCCNC(=N)N)NC(=O)[C@@H](N)CCCNC(=N)N)CSSC[C@H](C(=O)O)NC(=O)[C@@H](CCCCN)NC1=O` [PSP VI A9, H-RRKKcwwftfikc-OH] (H-RRKK[dC][dW][dW][dF][dT][dF][dI][dK][dC]-OH; disulfide 5-13), for which the “% Inhibition” value is listed as 11%. As for `CC[C@@H](C)[C@H]1NC(=O)[C@@H](Cc2ccccc2)NC(=O)[C@@H]([C@H](C)O)NC(=O)[C@@H](Cc2ccccc2)NC(=O)[C@@H](Cc2c[nH]c3ccccc23)NC(=O)[C@@H](CCSC)NC(=O)[C@H](NC(=O)[C@H](CCCCN)NC(=O)[C@H](CCCCN)NC(=O)[C@H](CCCNC(=N)N)NC(=O)[C@@H](N)CCCNC(=N)N)CSSC[C@H](C(=O)O)NC(=O)[C@@H](CC(N)=O)NC1=O` [PSP V A11, M-RRKKcmwftfinc-OH] (H-RRKK[dC][dM][dW][dF][dT][dF][dI][dN][dC]-OH; disulfide 5-13; N-terminus assumed), the “% Inhibition” value is listed as 92%. As for `CC[C@@H](C)[C@H]1NC(=O)[C@@H](Cc2ccccc2)NC(=O)[C@@H]([C@H](C)O)NC(=O)[C@@H](Cc2ccccc2)NC(=O)[C@@H](Cc2c[nH]c3ccccc23)NC(=O)[C@@H](Cc2c[nH]c3ccccc23)NC(=O)[C@H](NC(=O)[C@H](CCCCN)NC(=O)[C@H](CCCCN)NC(=O)[C@H](CCCNC(=N)N)NC(=O)[C@@H](N)CCCNC(=N)N)CSSC[C@H](C(=O)O)NC(=O)[C@@H](CO)NC1=O` [PSP VI A16, H-RRKKcwwftfisc-OH] (H-RRKK[dC][dW][dW][dF][dT][dF][dI][dS][dC]-OH; disulfide 5-13), the “% Inhibition” value stood at 74%. The result for `CC[C@@H](C)[C@H]1NC(=O)[C@@H](Cc2ccccc2)NC(=O)[C@@H]([C@H](C)O)NC(=O)[C@@H](Cc2ccccc2)NC(=O)[C@@H](Cc2c[nH]c3ccccc23)NC(=O)[C@@H](CCCNC(=N)N)NC(=O)[C@H](NC(=O)[C@H](CCCCN)NC(=O)[C@H](CCCCN)NC(=O)[C@H](CCCNC(=N)N)NC(=O)[C@@H](N)CCCNC(=N)N)CSSC[C@H](C(=O)O)NC(=O)[C@@H](CC(N)=O)NC1=O` [PSP V A15, H-RRKKcrwftfinc-OH] (H-RRKK[dC][dR][dW][dF][dT][dF][dI][dN][dC]-OH; disulfide 5-13) reads 87%; that for `CC[C@@H](C)[C@H]1NC(=O)[C@@H](Cc2ccccc2)NC(=O)[C@@H]([C@H](C)O)NC(=O)[C@@H](Cc2ccccc2)NC(=O)[C@@H](Cc2c[nH]c3ccccc23)NC(=O)[C@@H]([C@H](C)CC)NC(=O)[C@H](NC(=O)[C@H](CCCCN)NC(=O)[C@H](CCCCN)NC(=O)[C@H](CCCNC(=N)N)NC(=O)[C@@H](N)CCCNC(=N)N)CSSC[C@H](C(=O)O)NC(=O)[C@@H](CC(N)=O)NC1=O` [PSP V A8, H-RRKKciwftfinc-OH] (H-RRKK[dC][dI][dW][dF][dT][dF][dI][dN][dC]-OH; disulfide 5-13), 20%. Consider `CC[C@@H](C)[C@H]1NC(=O)[C@@H](Cc2ccccc2)NC(=O)[C@@H]([C@H](C)O)NC(=O)[C@@H](Cc2ccccc2)NC(=O)[C@@H](Cc2c[nH]c3ccccc23)NC(=O)[C@@H](Cc2c[nH]c3ccccc23)NC(=O)[C@H](NC(=O)[C@H](CCCCN)NC(=O)[C@H](CCCCN)NC(=O)[C@H](CCCNC(=N)N)NC(=O)[C@@H](N)CCCNC(=N)N)CSSC[C@H](C(=O)O)NC(=O)[C@@H](C(C)C)NC1=O` [PSP VI A18, H-RRKKcwwftfivc-OH] (H-RRKK[dC][dW][dW][dF][dT][dF][dI][dV][dC]-OH; disulfide 5-13), for which the “% Inhibition” value is 53%. With `CC[C@@H](C)[C@H]1NC(=O)[C@@H](Cc2ccccc2)NC(=O)[C@@H]([C@H](C)O)NC(=O)[C@@H](Cc2ccccc2)NC(=O)[C@@H](Cc2c[nH]c3ccccc23)NC(=O)[C@@H](CC(N)=O)NC(=O)[C@H](NC(=O)[C@H](CCCCN)NC(=O)[C@H](CCCCN)NC(=O)[C@H](CCCNC(=N)N)NC(=O)[C@@H](N)CCCNC(=N)N)CSSC[C@H](C(=O)O)NC(=O)[C@@H](CC(N)=O)NC1=O` [PSP V A12, H-RRKKcnwftfinc-OH] (H-RRKK[dC][dN][dW][dF][dT][dF][dI][dN][dC]-OH; disulfide 5-13), the “% Inhibition” value was less than 20%.

In the case of `CC[C@@H](C)[C@H]1NC(=O)[C@@H](Cc2ccccc2)NC(=O)[C@@H]([C@H](C)O)NC(=O)[C@@H](Cc2ccccc2)NC(=O)[C@@H](Cc2c[nH]c3ccccc23)NC(=O)[C@@H](CCC(N)=O)NC(=O)[C@H](NC(=O)[C@H](CCCCN)NC(=O)[C@H](CCCCN)NC(=O)[C@H](CCCNC(=N)N)NC(=O)[C@@H](N)CCCNC(=N)N)CSSC[C@H](C(=O)O)NC(=O)[C@@H](CC(N)=O)NC1=O` [PSP V A14, H-RRKKcqwftfinc-OH] (H-RRKK[dC][dQ][dW][dF][dT][dF][dI][dN][dC]-OH; disulfide 5-13), the “% Inhibition” value amounted to 44%. The result for `CC[C@@H](C)[C@H]1NC(=O)[C@@H](Cc2ccccc2)NC(=O)[C@@H]([C@H](C)O)NC(=O)[C@@H](Cc2ccccc2)NC(=O)[C@@H](Cc2c[nH]c3ccccc23)NC(=O)[C@@H](Cc2c[nH]c3ccccc23)NC(=O)[C@H](NC(=O)[C@H](CCCCN)NC(=O)[C@H](CCCCN)NC(=O)[C@H](CCCNC(=N)N)NC(=O)[C@@H](N)CCCNC(=N)N)CSSC[C@H](C(=O)O)NC(=O)[C@@H](CC(C)C)NC1=O` [PSP VI A10, H-RRKKcwwftfilc-OH] (H-RRKK[dC][dW][dW][dF][dT][dF][dI][dL][dC]-OH; disulfide 5-13) reads 48%; that for `CC[C@@H](C)[C@H]1NC(=O)[C@@H](Cc2ccccc2)NC(=O)[C@@H]([C@H](C)O)NC(=O)[C@@H](Cc2ccccc2)NC(=O)[C@@H](Cc2c[nH]c3ccccc23)NC(=O)[C@@H](Cc2c[nH]c3ccccc23)NC(=O)[C@H](NC(=O)[C@H](CCCCN)NC(=O)[C@H](CCCCN)NC(=O)[C@H](CCCNC(=N)N)NC(=O)[C@@H](N)CCCNC(=N)N)CSSC[C@H](C(=O)O)NC(=O)[C@@H](CCC(N)=O)NC1=O` [PSP VI A14, H-RRKKcwwftfiqc-OH] (H-RRKK[dC][dW][dW][dF][dT][dF][dI][dQ][dC]-OH; disulfide 5-13), 85%.
